{
  "source": "patent US20040142914A1",
  "about": "“Extended transdermal contraceptive regimens” (priority 2002, published 2004)",
  "origin": "cited, not measured here",
  "conditions": "humans",
  "data": [
    {"smiles": "C#C[C@]1(OC(C)=O)CC[C@H]2[C@@H]3CCC4=CC(=NO)CC[C@@H]4[C@H]3CC[C@@]21CC", "note": "(mixture of isomers) [norgestimate]", "values": [
      {"measurement": "share of norgestimate converted to norelgestromin in vivo", "result": "≥ 80", "unit": "%"}
    ]}
  ]
}
